{"source": "patent US11066629B2", "about": "“Lipid metabolism-promoting composition including isoxanthohumol” (SUNTORY HOLDINGS LIMITED, priority 2016, dated 2021)", "key": {"Acox1 gene": {"system": "Acox1 gene", "assay": "Gene expression in liver by quantitative PCR, high-fat diet model", "type": "in vivo, mice (C57BL/6J)", "conditions": "isoxanthohumol 30 or 60 mg/kg/day oral, 14 days", "from_the_text": "(§1) Using the high-fat diet model, the effect of isoxanthohumol intake on expression of a gene related to fat burning was studied by the following procedure.\n(§2) Thirty-two mice (C57BL/6J, male, 8 weeks of age, CLEA Japan, Inc.) were purchased and acclimatized for about one week. Then, the mice were divided into groups (n=8 in each group) in the group structure shown in Table 2 by the stratified continuous randomization method based on body weight. […] In Table 2, “Regular diet” is control diet “D12450J” (Research Diets), and “60 kcal % High-fat diet” is very high-fat diet “D12492” (Research Diets). Isoxanthohumol as the test substance was the standard sample (purity of 95% or higher) obtained in Preparation Example 1. […]\n(§3) The test period was 14 days. […] The amount of the test substance and the volume of the solution were calculated based on the latest body weight on the administration date. […]\n(§4) Using the extracted liver and brown adipose tissue, the effect of isoxanthohumol intake on expression of multiple genes related to lipid metabolism was studied. […] Then, cDNAs were synthesized using High-Capacity cDNA Reverse Transcription Kit (product name, Life Technologies Corporation), and the expression levels of genes shown in Table 3 were examined by quantitative PCR (TaqMan probe method) using Fast Universal PCR Master Mix (product name, Life Technologies Corporation). […]"}, "Cpt1a gene": {"system": "Cpt1a gene", "assay": "Gene expression in liver by quantitative PCR, high-fat diet model", "type": "in vivo, mice (C57BL/6J)", "conditions": "isoxanthohumol 30 or 60 mg/kg/day oral, 14 days", "from_the_text": "as §1, §2, §3, §4"}, "high-fat diet model [1]": {"system": "high-fat diet model", "assay": "Measurement of triglyceride (TG) content in liver", "type": "in vivo, Mice (C57BL/6J)", "conditions": "livers of Example 1", "protocol": "The neutral fat content (also referred to as “triglyceride content” or “TG content”) in the liver was measured using the liver extracted in Example 1. Specifically, the extracted liver was cut to obtain a section of about 30 mg, and 1 mL of a mixed solution containing methanol (Nacalai Tesque, Inc.) and chloroform (Nacalai Tesque, Inc.) at a ratio of 1:1 was added to the section which was then crushed with a bead beater, whereby triglyceride in the liver was extracted. After centrifugation (12000 g, for 15 minutes), the supernatant was collected, the solution was distilled off, and isopropanol was added for re-dissolution, whereby a sample was prepared. The triglyceride content in the sample was measured using Triglyceride E Test Wako (Wako), and the triglyceride content (mg/g) in the liver per unit weight was calculated. The data was presented as average f standard error. Student's t-test was used as a statistical test, and a difference with p<0.05 was considered significant."}, "[2]": {"assay": "Solubility in water under ice cooling conditions (Experiment A)", "type": "physicochemical", "conditions": "distilled water, ppm on w/v basis", "from_the_text": "(§5) The solubility of each of the standard samples of xanthohumol and isoxanthohumol in water (Experiment A) and various solvents (Experiment B) under ice cooling conditions was studied to evaluate the suitability for beverage applications. Xanthohumol and isoxanthohumol were the standard samples obtained in Preparation Example 1 (purity of 95% or higher).\nA sample containing distilled water and xanthohumol or isoxanthohumol having a weight corresponding to 0.2% (w/v) of the distilled water was prepared, and each standard sample was allowed to dissolve in distilled water as much as possible by stirring in a vortex mixer for 10 seconds or longer and shaking for about 60 minutes under ice cooling conditions. Further, centrifugation was performed (12,000 rpm, 4° C., for 5 minutes), and the supernatant was collected. This procedure was repeated three times. The finally obtained supernatant was used as a xanthohumol saturated aqueous solution or an isoxanthohumol saturated aqueous solution. The saturated aqueous solution was 100-fold diluted with a 25% aqueous ethanol solution to obtain a sample for analysis. The sample was subjected to quantitative analysis using an LC-MS/MS system (TSQ Quantiva, Thermo Fisher Scientific Inc.) to evaluate the solubility in water. […] Note that ppm is ppm on w/v basis unless otherwise specified. […]"}, "[3]": {"assay": "Effect of intake on fat burning, respiratory quotient (Oxymax respirometer)", "type": "in vivo, mice (C57BL/6J)", "conditions": "isoxanthohumol 0.2% in feed, 7 days, vs control group", "from_the_text": "The effect of isoxanthohumol intake on fat burning was studied by the following procedure using a respirometer “Oxymax” (Bio Research Center Co., Ltd.).\nAs for the group structure, there were two groups: a control group and an isoxanthohumol 0.2% group. Eight mice (C57BL/6J, male, 14 weeks of age, CLFA Japan, Inc.) were purchased and acclimatized for about one week. Then, the mice were divided into the control group and the isoxanthohumol 0.2% group (n=4 in each group) by the stratified continuous randomization method based on body weight. Control diet “D12450J” (Research Diets) was used as basic feed. During the test period, the control group was fed with the basic feed, and the isoxanthohumol 0.2% group was fed with mixed feed of the basic feed and the test substance (isoxanthohumol obtained in Preparation Example 1) at a weight ratio of 0.2% relative to the basic feed.\nThe test period (a period in which the test substance was ingested, and breath analysis was performed) was seven days. […] Using Oxymax (Bio Research Center Co., Ltd.), the oxygen consumption (VO2) and the carbon dioxide output (VCO2) of each individual were measured over time and recorded.\nThe respiratory quotient (RQ) was calculated using the following formula 1 from the oxygen consumption (VO2) and the carbon dioxide output (VCO2) at each point. […]"}, "[4]": {"assay": "Solubility of isoxanthohumol in various solvents under ice cooling conditions (Experiment B)", "type": "physicochemical", "conditions": "for solubility relative to aqueous solution without γ-cyclodextrin: ice cooling", "from_the_text": "as §5\nDistilled water, a hop extract, and 0.2% (w/v) or 1.0% (w/v) aqueous solution of β-cyclodextrin or γ-cyclodextrin (both Nacalai Tesque, Inc.) were prepared as solvents to study the solubility of isoxanthohumol under ice cooling conditions. As for the hop extract, hops (Saaz) that had been crushed into pellets were extracted with distilled water in an amount 10 times the weight of the pellets by shaking at room temperature for about 60 minutes, and the filtrate obtained by suction filtration was used for the test. The isoxanthohumol concentration in the hop extract was less than 0.5 ppm. A sample containing a solvent and isoxanthohumol having a weight corresponding to 0.2% (w/v) of the solvent was prepared for each of the above solvents, and the standard sample was allowed to dissolve in water as much as possible by stirring in a vortex mixer for 10 seconds or longer and shaking for about 60 minutes under ice cooling conditions. Centrifugation and quantitative analysis were performed as in Experiment A to evaluate the solubility of isoxanthohumol in each solvent."}, "[5]": {"system": "mouse preadipocyte (3T3-L1)", "conditions": "3T3-L1, concentration without cytotoxicity; cited from earlier work"}, "[6]": {"conditions": "heating; isoxanthohumol at 100° C.; cited from earlier work"}, "Pgc-1α gene": {"system": "Pgc-1α gene", "assay": "Gene expression in brown adipose tissue by quantitative PCR, high-fat diet model", "type": "in vivo, mice (C57BL/6J)", "conditions": "isoxanthohumol 30 or 60 mg/kg/day oral, 14 days", "from_the_text": "as §1, §2, §3, §4"}, "Ucp1 gene": {"system": "Ucp1 gene", "assay": "Gene expression in brown adipose tissue by quantitative PCR, high-fat diet model", "type": "in vivo, mice (C57BL/6J)", "conditions": "isoxanthohumol 30 or 60 mg/kg/day oral, 14 days", "from_the_text": "as §1, §2, §3, §4"}, "high-fat diet model [7]": {"system": "high-fat diet model", "assay": "Anti-obesity action in high-fat diet model (body weight, fat weight)", "type": "in vivo, Mice (C57BL/6J)", "from_the_text": "The effect of isoxanthohumol on body weight increase and fat accumulation associated with high-fat diet was studied by the following procedure. In the table, “Regular diet” is control diet “D12450J” (product name, Research Diets); “60 kcal % High-fat diet” is very high-fat diet “D12492” (product name, Research Diets); and “Catechins” is a preparation “Polyphenon 70A” (product name, Mitsui Norin Co., Ltd.). Xanthohumol and isoxanthohumol were the standard samples (purity of 95% or higher) obtained in Preparation Example 1. The “Dose” in the table indicates the dose (mg) of the test substance per day per kg body weight. The main evaluation items were the body weight and the fat weight (fat around epididymis, fat around kidney/posterior abdominal wall, and fat around mesentery) of each individual (each item was measured on the last day: day 55 of administration). Mice (C57BL/6J, male, 7 weeks of age, CLEA Japan, Inc.) were purchased, and they were quarantine and acclimatized for one week. […] The selected animals were divided into groups (n=8 in each group) in the group structure shown in Table 1 by the stratified continuous randomization method based on body weight at the end of the acclimatization period. They were fed with free access to specific basic feed and water. The test substance was orally administered once per day for eight weeks. The test substance was administered until day 55, with the dosing start date defined as day 0. The duration was regarded as an administration period. During the administration period, the feed was completely replaced with a frequency of twice a week. The volume of a dosing solution was 10 mL/kg, and the amount of the test substance and the volume of the solution were calculated based on the latest body weight on the administration date. After the administration period, adipose tissue (fat around epididymis, fat around kidney/posterior abdominal wall, fat around mesentery) was extracted, and the weight was measured. Statistical analysis was performed as follows. Specifically, the average and standard error were calculated for body weight and fat weight in each group. Statistical processing was performed using Microsoft Office Excel 2003, and significant difference was tested between the regular diet group and the high-fat diet group and between the high-fat diet group and the groups excluding the regular diet group. As a statistical method, the homogeneity of variance was tested using the F-test. Student's T-test was used for homoscedasticity, and Aspin-Welch t-test was used for heteroscedasticity."}, "[8]": {"system": "apoptosis inhibitor of macrophage (AIM)", "conditions": "mouse macrophage-derived cells (J774.1) cultured with isoxanthohumol; cited from earlier work"}, "[9]": {"system": "high-fat diet mouse model", "conditions": "repeated dose 30 mg/kg/day; cited from earlier work"}, "[10]": {"system": "type II diabetes mouse model", "conditions": "feed containing xanthohumol at 1%; cited from earlier work"}, "[11]": {"conditions": "60 mg/kg/day oral, day 55, compared to high-fat diet group"}, "[12]": {"conditions": "180 mg/kg/day oral, day 55, compared to high-fat diet group"}}, "data": [{"smiles": "COc1cc(O)c(CC=C(C)C)c2c1C(=O)CC(c1ccc(O)cc1)O2", "note": "(stereo not drawn) [isoxanthohumol]", "values": [{"measurement": "gene expression level of Acox1 gene in the liver", "setting": "Acox1 gene", "value": "significant increase"}, {"measurement": "gene expression level of Cpt1a gene in the liver", "setting": "Cpt1a gene", "value": "significant increase"}, {"measurement": "neutral fat (triglyceride) content in the liver", "setting": "high-fat diet model [1]; isoxanthohumol-administered group vs high-fat diet group", "value": "significantly lower"}, {"measurement": "action on neutral fat content in the liver compared with xanthohumol", "setting": "high-fat diet model [1]", "value": "stronger than that of xanthohumol"}, {"measurement": "Solubility in water (ice cooling conditions)", "setting": "[2]", "value": 6.3, "unit": "ppm"}, {"measurement": "respiratory quotient (RQ)", "setting": "[3]", "value": "lower"}, {"measurement": "solubility relative to aqueous solution without γ-cyclodextrin", "setting": "[4]; 0.2% (w/v) γ-cyclodextrin", "value": "about 5 times"}, {"measurement": "solubility relative to aqueous solution without γ-cyclodextrin", "setting": "[4]; 1.0% (w/v) γ-cyclodextrin", "value": "about 18 times"}, {"measurement": "Solubility (ice cooling conditions)", "setting": "[4]; solvent: 0.2% β-Cyclodextrin", "value": 18.4, "unit": "ppm"}, {"measurement": "Solubility (ice cooling conditions)", "setting": "[4]; solvent: 0.2% γ-Cyclodextrin", "value": 33.6, "unit": "ppm"}, {"measurement": "Solubility (ice cooling conditions)", "setting": "[4]; solvent: 1.0% β-Cyclodextrin", "value": 52.0, "unit": "ppm"}, {"measurement": "Solubility (ice cooling conditions)", "setting": "[4]; solvent: 1.0% γ-Cyclodextrin", "value": 115.5, "unit": "ppm"}, {"measurement": "Solubility (ice cooling conditions)", "setting": "[4]; solvent: Distilled water", "value": 6.3, "unit": "ppm"}, {"measurement": "Solubility (ice cooling conditions)", "setting": "[4]; solvent: Hop extract", "value": 13.7, "unit": "ppm"}, {"measurement": "differentiation of the cells into adipocytes", "setting": "[5]", "value": "did not suppress differentiation"}, {"measurement": "thermal stability", "setting": "[6]", "value": "stable even at a high temperature of 100 °C"}, {"measurement": "Pgc-1α gene expression in the brown adipose tissue", "setting": "Pgc-1α gene", "value": "significant increase"}, {"measurement": "expression level of Ucp1 gene in brown adipose tissue", "setting": "Ucp1 gene", "value": "increase in expression level"}, {"measurement": "fat weight around epididymis", "setting": "high-fat diet model [7]; [11]", "value": "significantly low"}, {"measurement": "fat weight around mesentery", "setting": "high-fat diet model [7]; [11]", "value": "significantly low"}, {"measurement": "fat weight around epididymis", "setting": "high-fat diet model [7]; [12]", "value": "significantly low"}, {"measurement": "fat weight around kidney/posterior abdominal wall", "setting": "high-fat diet model [7]; [12]", "value": "significantly low"}, {"measurement": "fat weight around mesentery", "setting": "high-fat diet model [7]; [12]", "value": "significantly low"}, {"measurement": "average body weight compared with xanthohumol medium-dose group", "setting": "high-fat diet model [7]; isoxanthohumol 60 mg/kg vs xanthohumol 60 mg/kg, day 55", "value": "equivalent to that of the xanthohumol medium-dose group"}, {"measurement": "average body weight compared with catechins group", "setting": "high-fat diet model [7]; isoxanthohumol 180 mg/kg vs catechins 300 mg/kg, day 55", "value": "better result"}, {"measurement": "body weight", "setting": "high-fat diet model [7]; isoxanthohumol high-dose 180 mg/kg/day oral, day 55, compared to high-fat diet group", "value": "significantly low"}, {"measurement": "body weight", "setting": "high-fat diet model [7]; isoxanthohumol medium-dose 60 mg/kg/day oral, day 55, compared to high-fat diet group", "value": "tended to have a low body weight"}, {"measurement": "expression of lipolysis-promoting factor AIM", "setting": "[8]", "value": "enhanced expression"}]}, {"smiles": "COc1cc(O)c(CC=C(C)C)c(O)c1C(=O)/C=C/c1ccc(O)cc1", "note": "[xanthohumol]", "values": [{"measurement": "Solubility in water (ice cooling conditions)", "setting": "[2]", "value": "Less than 0.5 ppm"}, {"measurement": "body weight increase", "setting": "[9]", "value": "suppression of body weight increase"}, {"measurement": "thermal stability", "setting": "[6]", "value": "thermally unstable"}, {"measurement": "body weight gain", "setting": "[10]", "value": "tendency of suppression of body weight gain"}, {"measurement": "weight of fat around kidney or the like", "setting": "[10]", "value": "decrease"}]}]}
